Assay results: patent US10639305B2, “Liquid preparation comprising pimobendan” (Boehringer Ingelheim Vetmedica GmbH, priority 2006, dated 2020)
Converted amounts (≈) assume the structure as drawn.

Experiments:
physchem = format: physicochemical
Procedure: Saturated solubility of pimobendan was investigated at 20 to 25% (w/v) of HPβCD in 10 mM phosphate buffer pH 7.0. The study was carried out on three different batches of HPβCD and each solution tested in duplicate (see FIG. 3). The solutions were prepared using the following method: • a) Approximately 3 ml of the solution under test was placed in a 7 ml glass vial with a magnetic stirring bar. • b) An excess of pimobendan was added. The sample was placed in an ultrasonic bath and sonicated for 5 min. to ensure an excess of pimobendan was present and more added if required. • c) The samples were placed in a water bath at 25° C. and stirred for at least 16 hours. • d) The samples were filtered using 0.2 μm PVDF syringe filter. • e) The samples were assayed by HPLC.
An isotonic solution was required for the formulation. […] Sodium chloride was added to increase the osmolality to 303 mOsm/Kg. Saturated solubility of pimobendan 0.75 mg/ml at 24% (w/v) HPβCD were investigated and results were compared with those formulations that were not supplemented with sodium chloride.

[1] = Saturated solubility of pimobendan at 10 to 40% (w/v) HPβCD at pH 3, 5 and 7; format: physicochemical; settings: HPβCD 10 to 40% (w/v), pH 3, 5, 7, 25° C.
Procedure: Kleptose® HP (Roquette, France) was used as HPβCD of pharmaceutical grade. […] The solutions were buffered with a sodium phosphate solution. The sample solutions were prepared using the following method: • a) Approximately 3 ml of the solution under test was placed in a 7 ml glass vial with a magnetic stirring bar. • b) The pH was adjusted with hydrochloric acid • c) An excess of pimobendan was added.

[2] = cited from earlier work

SMILES: COc1ccc(-c2nc3ccc(C4=NNC(=O)CC4C)cc3[nH]2)cc1 (stereo not shown) [pimobendan, 4,5-dihydro-6-[2-(4-methoxyphenyl)-1H-benzimidazol-5-yl]-5-methyl-3(2H)-pyridazinone]
- solubility (physchem; 25 °C, pH 7, aqueous with cosolvent or surfactant or cyclodextrin, thermodynamic from solid, saturated solubility (amount of soluble pimobendan)): ~1230 µg/mL (≈ 3.68 mM)
- saturated solubility (amount of soluble pimobendan) (physchem; pH 7): about 0.71 mg/ml
- solubility at a certain HPβCD concentration, compared between pH values [1]: lower at pH 7 than at pH 3, but higher than at pH 5
- solubility at pH 7 [2]: about 0.1 mg per 100 ml
